Patent US12150930B2 (BDR Pharmaceuticals Int'l Pvt. Ltd., priority 2022, dated 2024)

What was measured:
[1] = Stability of enzalutamide standard solution; format: physicochemical; details: 25° C., in ACN diluted with dissolution medium
Method: In that, 25 ml of ACN was dissolved and diluted with ACN to volume. From this solution, 2 ml of solution was transferred to a 100 ml volumetric flask and diluted with dissolution medium to volume. The standard solution was found stable at 25° C. for 27 h. Sample solution was prepared by adding a 5 ml sample of the present invention in 900 ml of dissolution medium. Further, 2.0 ml of this solution was diluted with 100 ml of dissolution medium.

CACO2 monolayers = details: across CACO2 monolayers; cited from earlier work
[2] = API solubility study in solubilizers/solvents/co-solvents (formulation trials); format: physicochemical; details: ethanol added after addition of API
Text: During the selection of excipients for formulation of Enzalutamide oral solution, first it is required to select the excipients which are not covered by patent of Enzalutamide capsules and also excipients need to meet IIG limits and useful for product development.
In the present invention selection of Solubilizers based on different trials which are like Labrafac Lipophile WL-1349, Labrafil M1944 Cs, Maisine CC, Kolliphor RH 40, Tween 80, Castor Oil, Migloyl 812 etc.
Further, here in the present invention selection of Co-solvents also based on trials and experiments which are Propylene glycol, Polyethylene glycol 400, Poly ethylene glycol 200, Ethanol, Glycerine, Maisine CC etc.
Based on the API solubility study combination of Kolliphor RH 40 with Ethanol and Polyethylene 400 was taken for further study. […]
Process for the Preparation: • 1. Dispensed quantity of Polyoxyl 40 hydrogenated castor oil was taken and started heating with maintained temperature of 45° C. of product. Further, Dispensed quantity of glyceryl monolinoleate was added to material of above step under stirring mixing/homogenization process. • 2. […] Further, then dispensed quantity of Ethanol was added to above step of material and continued process of stirring/homogenization then added dispensed quantity of propylene glycol and continued the process till Enzalutamide was dissolved. […]

[3] = cited from earlier work

- time for which the standard solution was found stable [1]: 27 h
- API solubilized during procedure [2]: approx. 80%
SMILES: CNC(=O)c1ccc(N2C(=S)N(c3ccc(C#N)c(C(F)(F)F)c3)C(=O)C2(C)C)cc1F [Enzalutamide]
- mean apparent permeability coefficient (CACO2 monolayers): 3.1e-05 cm/s
- Biopharmaceutics Classification System (BCS) class ([3]; low solubility and high permeability): Class 2
- effect of pH on enzalutamide solubility ([3]; physiological pH range): not affected by pH
